The record followed here is patent publication US10905704B2, “Agents and methods using thereof for the prevention and treatment of stem cell muscle disorders” (ECOLE POLYTECHNIQUE FEDERALE DE LAUSANNE (EPFL), priority 2015, dated 2021).

A short description of one assay: Endurance running test. It counts as in vivo, C57BL/6J mice. To be noted: aged mice, NR diet. As for the experimental part: Endurance running test. Mice were fasted 2 hours before running on a treadmill. The exercise regimen commenced at a speed of 9 cm/s with an inclination of 5 degrees. […] Mice were considered to be exhausted, and removed from the treadmill, following the accumulation of 5 or more shocks (0.1 mA) per minute for two consecutive minutes. The distance traveled and time before exhaustion is registered as maximal running distance and period.

For another assay, the system named is C2C12 myoblasts. As to the kind of experiment: Western blot of senescence and apoptosis markers in C2C12 myoblasts. It counts as cell-based, mouse. The following applies: late passage C2C12 myoblasts, 6-hour NR treatment. As for the experimental part: Cell culture and treatments. FACS sorted MuSCs were grown on a 10% Matrigel (Corning)-coated dish and flasks with Fams F-10 media (Gibco), supplemented with 20% fetal bovine serum (FBS, Gibco), 2.5 ng/ml basic fibroblast growth factor (bFGF, Sigma) and penicillin/streptomycin (1×, Gibco). Dishes were coated with 10% growth factor-free Matrigel solution on ice for 7 min then transferred to a 37° C. cell culture incubator overnight before use. Cells were grown for three generations in vitro before experiments with cells plated and passaged at 10^3 cells/ml and 50% confluencies, respectively. C2C12 mouse myoblasts were grown in DMEM (4.5 g/1 glucose, Gibco) supplemented with 10% FBS and penicillin/streptomycin (1×, Gibco). Western blotting. C2C12 cells were lysed in a buffer composed of 50 mM Tris, 150 mM KCl, EDTA 1 mM, NP40 1%, nicotinamide 5 mM, sodium butyrate 1 mM and protease inhibitors cocktail (Roche) at pH 7,4. Proteins were separated by SDS-PAGE and transferred onto nitrocellulose membranes. Blocking and antibody incubations were performed in 3% BSA. The following primary antibodies were used: anti-cleavage caspase 3 (Cell Signalling); Anti-γH2AX (Millipore); anti-β-actin (Sigma). All secondary antibodies were from Jackson Immunoresearch. […]

The test system of the next assay is MuSCs. As to the kind of experiment: Gene expression analyses (qPCR) in freshly isolated MuSCs of NR-treated mice. Type of assay: cell-based, C57BL/6J mice. As for the experimental part: Gene expression analyses. Total RNA was extracted from MuSCs by sorting cells directly into TriPure RNA isolation reagent (Roche) or from cultured C2C12 myoblasts using TriPure reagent according to the product manual. Total RNA was transcribed to cDNA using QuantiTect Reverse Transcription Kit (Qiagen). Expression of selected genes was analyzed using the LightCycler480 system (Roche) and LightCycler® 480 SYBR Green I Master reagent (Roche). The acidic ribosomal protein 36b4 gene (ribosomal protein, large, P0, Rp1p0) was used as housekeeping reference. FACS based muscle stem cell isolation. Gastrocnemius, soleus, quadriceps, and tibialis anterior muscles from both limbs were excised and transferred into PBS on ice. All muscles were trimmed, minced and digested with 0.1 mg/ml of type II collagenase (Sigma) in PBS for 15 min at 37° C. Samples were then centrifuged at 750 g for 5 min and further digested in 1 mg/ml of collagenase/dispase (Roche) for 30 mins at 37° C. Muscle slurries were sequentially filtered through 100, 70 and 40 μm cell strainers. The isolated cells were then washed in washing buffer (PBS+2.5% FBS) then resuspended in 200 μl of washing buffer and immediately stained with antibodies, including the MuSC markers CD31 (1:800, eBioscience, eFluor450 conjugated); CD34 (1:200, eBioscience, eFluor660 conjugated); CD45 (1:200, eBioscience, eFluor450 conjugated); CD11b (1:400, eBioscience, eFluor450 conjugated); Sca-1 (1:1000, eBioscience, PE-Cy7 conjugated); and α7 integrin (1:300, MBL) for 30 min at 4° C. Secondary staining was performed with a mixture of goat anti-mouse antibody (1:800, Life technologies, Alexa Fluor 488 conjugated) and propidium Iodide (PI, Sigma) for 15 min at 4° C. in the dark. Stained cells were analysed and sorted using the FACSAria II instrument (BD Biosciences). Debris and dead cells were excluded by forward scatter, side scatter and PI gating. Cells were sorted either directly on slides for immunostaining and into TriPure (Roche) reagent for RNA extraction.

The subject of a further assay is muscle. As to the kind of experiment: Cardiotoxin-induced muscle damage in NR-treated Mdx mice. Type of assay: in vivo. As for the experimental part:
Cardiotoxin-induced muscle damage. Animals were anesthetized using Isoflurane in oxygen from a precision vaporizer. 50 μl of 20 μM Naje mossambica mossambica cardiotoxin (Sigma) was injected intramuscularly cross the skin and directly into the tibialis anterior (TA) muscle. Mice were sacrificed at 7 and 14 days after injury. TA muscles were immediately embedded in Thermo Scientific™ Shandon™ Cryomatrix™ and frozen in isopentane, cooled in liquid nitrogen, for 2 mins before being transferred to dry ice and stored at −80° C.
Histology. TA muscles were harvested from anaesthetized mice and immediately frozen in Tissue-TEK® OCT compound (PST). 8-μm cryosections were collected and fixed with 4% paraformaldehyde, which are either stained with haematoxylin/eosin (HE) or antibodies. For immunostainings, heat activated antigen retrieval was performed in pH 6.0 citrate buffer for 10 min at 65° C. After washing with PBS-0.1% tween 20 (PBST), the sections were blocked with 10% affinipure Fab goat anti mouse IgG (Jackson Immunoresearch) in PBST for 60 min and PBST containing 2% BSA and 5% goat serum for 30 min at room temperature. Primary antibodies were then applied over night at 4° C. The following antibodies were used: anti-eMHC (Developmental Studies Hybridoma Bank, DSHB, University of Iowa), anti-Pax7 (DSHB, University of Iowa), anti-Laminin (Sigma). […]

Setting [1] is: freshly isolated aged MuSCs, NR diet, FIG. 4H.

Regarding `NC(=O)c1ccc[n+]([C@@H]2O[C@H](CO)[C@@H](O)[C@H]2O)c1` [NR, nicotinamide riboside], the maximal running distances entry in the assay “Endurance running test” (FIG. 3E) was “improvements”. Moreover, the maximal running times result in the assay “Endurance running test” (FIG. 3F) is on record as “improvements”. The “expression of cell senescence and apoptosis markers (γH2AX, cleaved caspase3)” value with C2C12 myoblasts was “reduced the expression of cell senescence and apoptosis markers”. In addition, the “mitochondrial TCA and OXPHOS gene expression” value in the assay on MuSCs (aged MuSCs, NR diet, FIG. 4I) is “largely rescued”. Besides, in the assay on MuSCs (setting [1]), the “expression of cell cycle related genes” value is given as “increasing the expression of cell cycle related genes”; the “mRNA levels of CDKN1A and related senescence indicators” value is on record as “significantly reduced”. Moreover, the “Phb1 and Phb2 expression” value in the assay on MuSCs (young and aged MuSCs, NR 400 mg/kg/day 6 weeks, FIG. 5B) is “induced Phb1 and Phb2 expression”. The “regenerated muscle fibers (eMyHC)” value in the assay on muscle (7 days after CTX, FIG. 6F) is recorded as “increase in regenerated muscle fibers”. In the assay on muscle (7 days of recovery, FIG. 6L), the “CTX-induced muscle regeneration (H/E)” value is on record as “muscle regeneration was improved”.
